Measurements reported in article PMC11435220, “Anticancer Activity of Imidazolyl Gold(I/III) Compounds in Non-Small Cell Lung Cancer Cell Lines” (Pharmaceuticals, 2024).

How the values were obtained:
[1] = tested on: HCC-44; assay: MTT viability assay, HCC-44; assay type: cell-based, human; conditions: mean ± span, 48 h treatment, cell line with KRAS mutation
Outline: (§1)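 Compounds were applied for 48 h to subconfluent cultures (RPMI, 10% heat-inactivated FBS), with MTT conversion read at 570 nm. Potency was taken as IC50 from nonlinear regression.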

[2] = tested on: H1993; assay: MTT viability assay, H1993; assay type: cell-based, human; conditions: mean ± span, 48 h treatment, cell line without KRAS mutation
Outline: as §1

[3] = tested on: TrxR in H522 cell lysates; assay: Thioredoxin reductase activity in lysates of treated H522 cells; assay type: cell-based, human; conditions: for Mean Diff. TrxR activity vs. veh: H522 lysate, 24 h treatment at 5 μM
[4] = tested on: H522; assay: MTT viability assay, H522; assay type: cell-based, human; conditions: mean ± span, 48 h treatment, cell line without KRAS mutation
Outline: as §1

[5] = tested on: A549; assay: MTT viability assay, A549; assay type: cell-based, human; conditions: mean ± span, 48 h treatment, cell line with KRAS mutation
Outline: as §1

[6] = tested on: TrxR in A549 cell lysates; assay: Thioredoxin reductase activity in lysates of treated A549 cells; assay type: cell-based, human; conditions: for Mean Diff. TrxR activity vs. veh: A549 lysate, 24 h treatment at 5 μM
[7] = tested on: H661; assay: MTT viability assay, H661; assay type: cell-based, human; conditions: mean ± span, 48 h treatment, cell line without KRAS mutation
Outline: as §1

[8] = tested on: human NSCLC cell lines with KRAS mutations; assay: MTT assay, average across NSCLC cell lines with KRAS mutations; assay type: cell-based; conditions: 48 h, read-out: IC50 * averaged values
Outline: as §1

[9] = tested on: H157; assay: MTT viability assay, H157; assay type: cell-based, human; conditions: mean ± span, 48 h treatment, cell line with KRAS mutation
Experimental: NSCLC cell lines were obtained from the Hamon Center for Therapeutic Oncology Research (UT Southwestern Medical Center). IMR-90 human lung fibroblasts were from ATCC (CC-186). All cell lines were maintained and treated in RPMI medium (Cytiva (Shanghai, China), #SH30027), supplemented with 10% heat-inactivated FBS (Millipore Sigma (Darmstadt, Germany), F0394).
5000–10,000 cells/0.1 mL/well were seeded in 96-well plates to achieve 70% confluence after 24 h. All drug stock solutions were prepared fresh in DMSO at a concentration of 10 mM. The day after cell plating, we added 0.1 mL of medium containing the appropriate drug dilutions. After 48 h of treatment, 10 μL of MTT solution (5 mg/mL) was added to each well. After 4 h incubation, the medium was aspirated, and the formazan salts dissolved in 200 μL DMSO/well for 10 min at 37 °C. The absorbance was read at 570 nm (OD 570 nm). Data are represented as mean ± SD of two independent experiments.
Statistical and data analysis was performed using GraphPad Prism (v10). IC50 values were calculated using a three-parameter non-linear regression model with log(inhibitor) vs. response. For the TxrR activity statistics, the groups were compared using a two-way ANOVA followed by Dunnett’s multiple comparisons with alpha = 0.05. The correlation between IC50 values and TxrR activity was achieved using Pearson correlation with alpha = 0.05.

## Clc1n[c]([Au-][P+](c2ccccc2)(c2ccccc2)c2ccccc2)n(Cc2ccccc2)c1Cl [Compound 7]
[1]
  IC50: 9.2 ± 1.02 µM
[2]
  IC50: 1.8 ± 0.96 µM
[3]; reading at 25 min
  Mean Diff. TrxR activity vs. veh: −57.19%
[3]; reading at 60 min
  Mean Diff. TrxR activity vs. veh: −91.41%
[3]; reading at 90 min
  Mean Diff. TrxR activity vs. veh: −90.61%
[3]; reading at 110 min
  Mean Diff. TrxR activity vs. veh: −89.86%
[4]
  IC50: 6.5 ± 0.97 µM
[5]
  IC50: 16 ± 1.3 µM
[6]; reading at 25 min
  Mean Diff. TrxR activity vs. veh: −59.2%
[6]; reading at 60 min
  Mean Diff. TrxR activity vs. veh: −44.4%
[6]; reading at 90 min
  Mean Diff. TrxR activity vs. veh: −56.35%
[6]; reading at 110 min
  Mean Diff. TrxR activity vs. veh: −53.76%
[7]
  IC50: 0.95 ± 1 µM
[8]
  IC50: 10 µM
[9]
  IC50: 8.5 ± 1.2 µM

## Cn1cc[n+](C)[c]1[Au-2]([Cl])[P+](c1ccccc1)(c1ccccc1)c1ccccc1 [Compound 8]
[1]
  IC50: 7.3 ± 1.05 µM
[2]
  IC50: 1.8 ± 1.05 µM
[3]; H522, 24 h treatment, stated for both cell lines
  TrxR activity reduction / inhibition: more than 80%
[3]; reading at 25 min
  Mean Diff. TrxR activity vs. veh: −81.92%
[3]; reading at 60 min
  Mean Diff. TrxR activity vs. veh: −82.1%
[3]; reading at 90 min
  Mean Diff. TrxR activity vs. veh: −91.89%
[3]; reading at 110 min
  Mean Diff. TrxR activity vs. veh: −88.27%
[4]
  IC50: 3.3 ± 0.93 µM
[5]
  IC50: 9.1 ± 1.2 µM
[6]; A549, 24 h treatment, stated for both cell lines
  TrxR activity reduction / inhibition: more than 80%
[6]; reading at 25 min
  Mean Diff. TrxR activity vs. veh: −86.87%
[6]; reading at 60 min
  Mean Diff. TrxR activity vs. veh: −80.79%
[6]; reading at 90 min
  Mean Diff. TrxR activity vs. veh: −82.25%
[6]; reading at 110 min
  Mean Diff. TrxR activity vs. veh: −82.25%
[7]
  IC50: 1.1 ± 1.1 µM
[8]
  IC50: 11 µM
[9]
  IC50: 17 ± 1.2 µM
